Source: patent US12054494B2, “Compound with anticancer activity” (KYOWA KIRIN CO., LTD., priority 2018, dated 2024)

Test system: SU-DHL-4 cells
Experiment: Inhibitory effect on cell viability (Cell Counting Kit-8)
Type: cell-based
Settings: Homo sapiens, 72 hours culture with test compound, concentration showing 90% inhibition rate of cell viability
Experimental: Inhibitiory Effect on Cell Viability
SU-DHL-4 cells (Code No. ACC 495, Deutsche Sammlung von Mikroorganismen and Zellkulturen GmbH) were cultured at 37° C. using a carbon dioxide incubator (95% air, 5% CO2) in RPMI1640 medium (Code No. 11875-093, Thermo Fisher Scientific) in which inactivated fetal bovine serum (FBS: Code No. 10099-148, Thermo Fisher Scientific) in an amount to give a final concentration of 10 vol % and penicillin/streptomycin solution (PS: Code No. 15140-122, Thermo Fisher Scientific) in an amount to give a final concentration of 1 vol % were added. The cells were passaged twice a week at a volume of 20-40 mL so as to maintain a cell concentration of 1×10^6 cells/mL or less.
The cultured SU-DHL-4 cells were seeded at 2000 cells/well in a transparent 384-well plate (Code No. 781182, Greiner bio-one). After seeding, the cells were precultured at 37° C. in a carbon dioxide gas incubator for 18 to 25 hours. Next, 1, 0.1 or 0.01 mmol/L DMSO solution of the test compound was prepared and a 9-step dilution series were prepared so that the concentration will be 200 times the final concentration in the RPMI1640 medium containing the above FBS and PS, and 1/200 volume of the dilution series were added to each well. At this time, the final concentration of DMSO was adjusted to be 0.1 vol %. After adding the test compound, the cells were cultured at 37° C. in a carbon dioxide gas incubator for 72 hours. Next, 0.020 mL of Cell Counting Kit-8 (Code No. CK04, DOJINDO) solution diluted 2-fold or 4-fold with phosphate buffered saline (PBS) was added to each well. Color reaction was carried out in a carbon dioxide gas incubator at 37° C. for 2 to 3 hours, and the absorbance at a wavelength of 450 nm was measured using SpectraMax 340PC (Molecular Devices). The inhibition rate of cell viability was calculated by the following formula, and the concentration of the test compound (IC90 value) showing a 90% inhibition rate of cell viability was calculated. Inhibition rate of cell viability (%)=100−(A−B)/(C−B)×100 • A: Absorbance of a well containing test compound • B: Absorbance of a well without addition of cells • C: Absorbance of a well without addition of test compound

Work on `CCC(=O)N1c2ccccc2[C@H](NCCCCCCCCC(=O)Nc2ccc(N[C@@H]3C[C@H](C)N(C(=O)CC)c4ccccc43)cc2)C[C@@H]1C` (relative stereo) [Compound 12g, 9-(((2S*,4R*)-2-Methyl-1-propionyl-1,2,3,4-tetrahydroquinolin-4-yl)amino)-N-(4-(((2S,4R)-2-methyl-1-propionyl-1,2,3,4-tetrahydroquinolin-4-yl)amino)phenyl)nonanamide] yielded an IC90 of 31.1 nM.

Compound `CCC(=O)N1c2ccccc2[C@H](Nc2ccc(C(=O)NCCn3cc(-c4ccc(N[C@@H]5C[C@H](C)N(C(=O)CC)c6ccccc65)cc4)cn3)cc2)C[C@@H]1C` [Compound 6q, 4-(((2S,4R)-2-Methyl-1-propionyl-1,2,3,4-tetrahydroquinolin-4-yl)amino)-N-(2-(4-(4-(((2S,4R)-2-methyl-1-propionyl-1,2,3,4-tetrahydroquinolin-4-yl)amino)phenyl)-1H-pyrazol-1-yl)ethyl)benzamide] has an IC90 of 0.45 nM.

`CCC(=O)N1c2ccccc2[C@H](Nc2ccc(NC(=O)CCNC(=O)c3ccc(C4=N[C@@H](CC(=O)OC(C)(C)C)c5nnc(C)n5-c5sc(C)c(C)c54)cc3)cc2)C[C@@H]1C` (relative stereo) [Compound 13i, tert-Butyl 2-((S)-2,3,9-trimethyl-4-(4-((3-((4-(((2S*,4R*)-2-methyl-1-propionyl-1,2,3,4-tetrahydroquinolin-4-yl)amino)phenyl)amino)-3-oxopropyl)carbamoyl)phenyl)-6H-thieno[3,2-f][1,2,4]triazolo[4,3-a][1,4]diazepin-6-yl)acetate] gave an IC90 of 3.37 nM.

In the case of `CCC(=O)N1c2ccccc2[C@H](Nc2ccc(NC(=O)CCCC(=O)Nc3ccc(N[C@@H]4C[C@H](C)N(C(=O)CC)c5cc(/C=C/CN)ccc54)cc3)cc2)C[C@@H]1C` (relative stereo) [Compound 10t, N^1-(4-(((2S*,4R*)-7-((E)-3-Aminoprop-1-en-1-yl)-2-methyl-1-propionyl-1,2,3,4-tetrahydroquinolin-4-yl)amino)phenyl)-N^5-(4-(((2S,4R)-2-methyl-1-propionyl-1,2,3,4-tetrahydroquinolin-4-yl)amino)phenyl)glutaramide], the IC90 is reported as 26.3 nM.

Compound `CCC(=O)N1c2ccccc2[C@H](Nc2ccc(-n3cc(CNC(=O)c4ccc(C5=NCc6nnc(C)n6-c6sc(C)c(C)c65)cc4)nn3)cc2)C[C@@H]1C` [Compound 14n, N-((1-(4-(((2S,4R)-2-Methyl-1-propionyl-1,2,3,4-tetrahydroquinolin-4-yl)amino)phenyl)-1H-1,2,3-triazol-4-yl)methyl)-4-(2,3,9-trimethyl-6H-thieno[3,2-f][1,2,4]triazolo[4,3-a][1,4]diazepin-4-yl)benzamide] has an IC90 of 0.05 nM.

`CCC(=O)N1c2ccccc2[C@H](Nc2ccc(NC(=O)CN3CC=C(c4ccc(N[C@@H]5C[C@H](C)N(C(=O)CC)c6ccccc65)cc4)CC3)cc2)C[C@@H]1C` [Compound 5k, N-(4-(((2S,4R)-2-Methyl-1-propionyl-1,2,3,4-tetrahydroquinolin-4-yl)amino)phenyl)-2-(4-(4-(((2S,4R)-2-methyl-1-propionyl-1,2,3,4-tetrahydroquinolin-4-yl)amino)phenyl)-3,6-dihydropyridin-1(2H)-yl)acetamide] gave an IC90 of 7.48 nM.

For `CCC(=O)N1c2ccccc2C(Nc2ccc(NC(=O)C#CCNC(=O)c3ccc(N[C@@H]4C[C@H](C)N(C(=O)CC)c5ccccc54)cc3)cc2)CC1C` (stereo partly drawn) [Compound 6h, 4-(((2S,4R)-2-Methyl-1-propionyl-1,2,3,4-tetrahydroquinolin-4-yl)amino)-N-(4-((4-((2-methyl-1-propionyl-1,2,3,4-tetrahydroquinolin-4-yl)amino)phenyl)amino)-4-oxobut-2-yn-1-yl)benzamide], the IC90 was 0.003 nM.

`CCC(=O)N1c2ccccc2[C@H](Nc2ccc(CNCCn3cc(-c4ccc(N[C@@H]5C[C@H](C)N(C(=O)CC)c6ccccc65)cc4)cn3)cc2)C[C@@H]1C` [Compound 5f, 1-((2S,4R)-2-Methyl-4-((4-(((2-(4-(4-(((2S,4R)-2-methyl-1-propionyl-1,2,3,4-tetrahydroquinolin-4-yl)amino)phenyl)-1H-pyrazol-1-yl)ethyl)amino)methyl)phenyl)amino)-3,4-dihydroquinolin-1(2H)-yl)propan-1-one] showed an IC90 of 24.7 nM.

In the case of `Cc1sc2c(c1C)C(c1ccc(C(=O)NCCCNC(=O)c3ccc(C4=N[C@@H](CC(=O)OC(C)(C)C)c5nnc(C)n5-c5sc(C)c(C)c54)cc3)cc1)=N[C@@H](CC(=O)OC(C)(C)C)c1nnc(C)n1-2` [Compound 1b, Di-tert-butyl 2,2′-[(6S,6′S)-({[propane-1,3-diylbis(azanediyl)]bis(carbonyl)}bis(4,1-phenylene))bis(2,3,9-trimethyl-6H-thieno[3,2-f][1,2,4]triazolo[4,3-a][1,4]diazepine-4,6-diyl)]diacetate], the IC90 is reported as 1.78 nM.

With `CCC(=O)N1c2ccccc2[C@H](Nc2ccc(NC(=O)CNC(=O)C(F)=C3CCC(N[C@@H]4C[C@H](C)N(C(=O)CC)c5ccccc54)CC3)cc2)C[C@@H]1C` (relative stereo) [Compound 15k, 2-Fluoro-2-(4-(((2S*,4R*)-2-methyl-1-propionyl-1,2,3,4-tetrahydroquinolin-4-yl)amino)cyclohexylidene)-N-(2-((4-(((2S,4R)-2-methyl-1-propionyl-1,2,3,4-tetrahydroquinolin-4-yl)amino)phenyl)amino)-2-oxoethyl)acetamide] the IC90 was 0.32 nM.

With `CCC(=O)N1c2ccccc2[C@H](Nc2ccc(C(=O)N3CCn4cc(-c5ccc(N[C@@H]6C[C@H](C)N(C(=O)CC)c7ccccc76)cc5)nc4C3)cc2)C[C@@H]1C` [Compound 3f, 1-[(2S,4R)-2-Methyl-4-({4-[2-(4-{[(2S,4R)-2-methyl-1-propionyl-1,2,3,4-tetrahydroquinolin-4-yl]amino}phenyl)-5,6,7,8-tetrahydroimidazo[1,2-a]pyrazine-7-carbonyl]phenyl}amino)-3,4-dihydroquinolin-1(2H)-yl]propan-1-one] the IC90 was 0.33 nM.

With `CCC(=O)N1c2ccccc2[C@H](Nc2ccc(C(=O)NC3CN(C(=O)c4ccc(C5=NCc6nnc(C)n6-c6sc(C)c(C)c65)cc4)C3)cc2)C[C@@H]1C` [Compound 14k, 4-(((2S,4R)-2-Methyl-1-propionyl-1,2,3,4-tetrahydroquinolin-4-yl)amino)-N-(1-(4-(2,3,9-trimethyl-6H-thieno[3,2-f][1,2,4]triazolo[4,3-a][1,4]diazepin-4-yl)benzoyl)azetidin-3-yl)benzamide] the IC90 was 1.8 nM.

For `Cc1sc2c(c1C)C(c1ccc(NC(=O)C#CCNC(=O)c3ccc(C4=NCc5nnc(C)n5-c5sc(C)c(C)c54)cc3)cc1)=NCc1nnc(C)n1-2` [Compound 14e, N-(4-Oxo-4-((4-(2,3,9-trimethyl-6H-thieno[3,2-f][1,2,4]triazolo[4,3-a][1,4]diazepin-4-yl)phenyl)amino)but-2-yn-1-yl)-4-(2,3,9-trimethyl-6H-thieno[3,2-f][1,2,4]triazolo[4,3-a][1,4]diazepin-4-yl)benzamide], the IC90 was 0.26 nM.

Work on `CCC(=O)N1c2ccccc2[C@H](Nc2ccc(C(=O)NCC(=O)CNC(=O)c3ccc(N[C@@H]4C[C@H](C)N(C(=O)CC)c5ccccc54)cc3)cc2)C[C@@H]1C` [Compound 1l, N,N′-(2-Oxopropane-1,3-diyl)bis(4-{[(2S,4R)-2-methyl-1-propionyl-1,2,3,4-tetrahydroquinolin-4-yl]amino}benzamide)] yielded an IC90 of 0.04 nM.
